The subject of assay [1] is M. fortuitum (n = 11) clinical isolates. Briefly: MIC against rapid-growing NTM clinical isolates. Format: cell-based. Particulars: M. fortuitum (n = 11); for MIC90: Mycolicibacterium fortuitum, read-out: MIC90.
The subject of the next assay is Other NTM (n = 12). The assay is described as follows: MIC against rapid-growing NTM clinical isolates. Type of assay: cell-based. Particulars: Other NTM (n = 12); for MIC90: read-out: MIC90.
Assay [2] relates to M. chelonae (n = 11) clinical isolates. The assay is described as follows: MIC against rapid-growing NTM clinical isolates. Format: cell-based. Particulars: M. chelonae (n = 11); for MIC90: Mycobacteroides chelonae, read-out: MIC90.
Assay [3] has as its system M. abscessus (n = 20) clinical isolates. Briefly: MIC against rapid-growing NTM clinical isolates. Type of assay: cell-based. Particulars: Mycobacteroides abscessus; M. abscessus (n = 20); read-out: MIC90.
For another assay, the system named is M. abscessus 79. The assay is described as follows: MIC in MHB versus 7H9+OADC. Format: cell-based.
Another assay has as its system M. abscessus 21. Briefly: MIC in MHB versus 7H9+OADC. Type of assay: cell-based.
The format of assay [4] is cell-based. The following applies: for Interpretation of checkerboard synergy testing: antibiotic in combination with CRS400393 (benzothiazole amides).
A further assay deals with M. abscessus 1. The assay is described as follows: MIC in MHB versus 7H9+OADC. Format: cell-based.
Setting [5] is: antibiotic in checkerboard combination with CRS400393.

The term MIC90 denotes an inhibitory concentration at the 90% level, which refers to growth in some studies and to a panel of isolates in others. What is called MIC is the lowest concentration found to suppress growth.

The structures appear in SMILES notation. In brackets after ≈: the same amount, converted by molar mass. Like-named read-outs stand apart in the source and are kept apart here.

On to `NCC[C@H](O)C(=O)N[C@@H]1C[C@H](N)[C@@H](O[C@H]2O[C@H](CN)[C@@H](O)[C@H](O)[C@H]2O)[C@H](O)[C@H]1O[C@H]1O[C@H](CO)[C@@H](O)[C@H](N)[C@H]1O` [Amikacin, reference compound], for which the MIC range in [1] lay in the range of 0.5 to 4 µg/mL; against Other NTM (n = 12), 0.5 to 16 µg/mL. The MIC90 in assay [1] was 2 µg/mL (≈ 3.42 µM); with Other NTM (n = 12), 16 µg/mL (≈ 27.3 µM); in [2] it was more than 16 µg/mL; in assay [3], 16 µg/mL (≈ 27.3 µM). The MIC with M. abscessus 79 (M. abscessus 79, 7H9 + OADC (5 mg/mL albumin)) amounted to 4 µg/mL; in the assay with M. abscessus 79 (M. abscessus 79, MHB), 2 µg/mL (≈ 3.42 µM); in the assay with M. abscessus 21 (M. abscessus 21, 7H9 + OADC (5 mg/mL albumin)), 4 µg/mL; with M. abscessus 21 (M. abscessus 21, MHB), 2 µg/mL (≈ 3.42 µM); with M. abscessus 1 (M. abscessus 1, 7H9 + OADC (5 mg/mL albumin)), 16 µg/mL; in the assay on M. abscessus 1 (M. abscessus 1, MHB) it was 8 µg/mL (≈ 13.7 µM). Further, the “FIC Index” value in [4] (setting [5]) stood at 1. Also, in assay [4], the “Interpretation of checkerboard synergy testing” value (shortened to “Interpretation”) was “additive”.
For the compound `CC[C@H]1OC(=O)[C@H](C)[C@@H](O[C@H]2C[C@@](C)(OC)[C@@H](O)[C@H](C)O2)[C@H](C)[C@@H](O[C@@H]2O[C@H](C)C[C@H](N(C)C)[C@H]2O)[C@](C)(O)C[C@@H](C)CN(C)[C@H](C)[C@@H](O)[C@]1(C)O` [Azithromycin, reference compound], the MIC90 in assay [1] was more than 8 µg/mL; in the assay with Other NTM (n = 12), more than 8 µg/mL; in assay [2] it was 0.5 µg/mL (≈ 0.668 µM); in [3], more than 8 µg/mL. In assay [2], this compound yielded an MIC range of 0.12 to 0.5 µg/mL. For the same compound, the lung histology result with Mabs 21 (after 4 weeks of treatment) was “only minimal pathologic evidence of inflammatory infiltrates”. For the same compound, the “reduction of lung CFU compared to the untreated group” value with Mabs 21 (oral gavage 100 mg/kg, 4 weeks) was determined as 0.38 Log10 CFU. Moreover, the “FIC Index” value in assay [4] (setting [5]) stood at 1. The “Interpretation” value in [4] is given as “additive”.
In the case of `COc1nc2ccc(Br)cc2cc1[C@@H](c1ccccc1)[C@@](O)(CCN(C)C)c1cccc2ccccc12` [Bedaquiline], in [4] (setting [5]), the “FIC Index” value is 2. Also, the “Interpretation” value is recorded as “indifferent” in assay [4] and “indifference” in assay [4] (listed as bedaquiline).
On to `CO[C@@]1(NC(=O)Cc2cccs2)C(=O)N2C(C(=O)O)=C(COC(N)=O)CS[C@@H]21` [Cefoxitin], for which, in assay [4] (setting [5]), the “FIC Index” value was 0.56. In addition, the “Interpretation” value in [4] was “additive”.
In the same order, the values of `CC(C)/N=c1\cc2n(-c3ccc(Cl)cc3)c3ccccc3nc-2cc1Nc1ccc(Cl)cc1` [Clofazimine] are 0.52 and “additive”.
On to `C[C@H]1c2cccc(O)c2C(=O)C2=C(O)[C@]3(O)C(=O)C(C(N)=O)=C(O)[C@@H](N(C)C)[C@@H]3[C@@H](O)[C@@H]21` [Doxycycline], for which, in assay [4] (setting [5]), the “FIC Index” value was found to be 2. Moreover, the “Interpretation” value was “indifferent” in assay [4] and “indifference” in assay [4] (listed as doxycycline).
Take `CC(=O)NC[C@H]1CN(c2ccc(N3CCOCC3)c(F)c2)C(=O)O1` [Linezolid, reference compound]: the MIC90 in assay [1] is more than 8 µg/mL; in the assay with Other NTM (n = 12), more than 8 µg/mL; in assay [2], 8 µg/mL (≈ 23.7 µM); in assay [3] it was more than 8 µg/mL. For the same compound, the MIC range in [2] was in the range of 1 to 8 µg/mL. Further, the “FIC Index” value in assay [4] is recorded as 0.56.
Regarding `Cc1cc(NS(=O)(=O)c2ccc(N)cc2)no1` [Sulfamethoxazole], the “FIC Index” value in assay [4] was determined as 0.56.
On to `NC[C@H]1O[C@H](O[C@H]2[C@H](O)[C@@H](O[C@H]3O[C@H](CO)[C@@H](O)[C@H](N)[C@H]3O)[C@H](N)C[C@@H]2N)[C@H](N)C[C@@H]1O` [Tobramycin], for which the “FIC Index” value in [4] (setting [5]) is 0.75. For the same compound, the “Interpretation” value in [4] was “additive”.

Source of the values: paper PMC6158578, “Optimization and Lead Selection of Benzothiazole Amide Analogs Toward a Novel Antimycobacterial Agent” (Frontiers in Microbiology, 2018).
